Entries after “also recorded” stand apart in the source; their conditions may differ.
Legend:
MLL-AF9 AML = assay: Kaplan-Meier survival of MLL-AF9 AML-bearing mice; type: in vivo, mouse
Excerpt: (§1) The MLL-AF9 and HoxA9/Meis1 leukemia models have been described previously (Sykes et al., 2016). Briefly, the MLL-AF9 model was established by crossing MLL-AF9 knockin mice (Corral et al., 1996) with mice expressing GFP under the control of the ubiquitin promoter as well as mice expressing luciferase under the control of the β-actin promoter. The retroviral transduction model of HoxA9/Meis1 leukemia was generated by the infection of bone marrow mononuclear cells with an MSCV-HoxA9-IRES-Meis1 construct (originally designed by Dr. Guy Sauvageau; Kroon et al., 1998). For both models, leukemic bone marrow cells from a terminally ill mouse were harvested and expanded ex vivo in RPMI1640 medium (Lonza) supplemented with 10% fetal bovine serum (FBS; Gibco), 100 I.U./ml penicillin, 100 μg/ml streptomycin, 2 mM L-glutamine (all from Corning), 20 ng/ml recombinant mouse SCF (rmSCF), 10 ng/ml recombinant mouse interleukin 3 (rmIL-3) and […] (all from R&D Systems).
(§2) Recipient male mice (age 8-10 weeks) were injected intravenously (retro-orbital) with 1 million leukemia cells in a volume of 100 μl of saline. Disease progression was tracked intravitally using bioluminescence imaging. Mice were anaesthetized using isoflurane, injected with luciferin (150 μl of a 15 mg/ml solution in PBS), and imaged on an IVIS 200 Spectrum In Vivo Imaging System (PerkinElmer). When indicated, mice were treated with iCT (cytarabine, 100 mg/kg, once daily for 5 days and doxorubicin, 3 mg/kg, once daily for the first 3 days) or vehicle (saline) delivered via I.P. injection. To inhibit glutamine metabolism, mice were treated with DON (0.3 mg/kg, once daily) or vehicle (saline) delivered via I.P. injection. To inhibit GLS, mice were treated with a GLS inhibitor (150 mg/kg, twice daily) or vehicle (20% HP-β-cyclodextrin+20% Solutol, 50 mM citrate buffer, pH 3) delivered by oral gavage. To inhibit DHODH, mice were treated with BRQ (50 mg/kg, once daily) or vehicle (70% PBS, 30% poly(ethylene glycol)-400, pH 7.2) delivered via I.P. injection. To inhibit GCL, mice were treated with BSO (twice daily by I.P. injection at 2.23 mg/kg+in the drinking water at 4.45 mg/ml) or vehicle (saline by I.P. injection+untreated drinking water).

[1] = system: glutamine metabolism in MLL-AF9 AML cells; assay: LC-MS-based quantification of metabolites in MLL-AF9 AML cells of treated mice; type: in vivo, mouse; conditions: one day after the last dose of DON
Protocol: as §2
Mice were euthanized by CO2 asphyxiation and femurs and tibias were isolated and cleaned to remove muscle. Bones were then crushed using a mortar and pestle in ice-cold flow buffer (PBS containing 2% FBS), and the obtained cell suspension was passed through a 70 μm cell strainer. Red blood cells were removed by incubating cells for 5 minutes in ACK lysing buffer (Gibco) on ice, cells were washed and resuspended in ice-cold flow buffer containing the viability dye 7-aminoactinomycin D (7-AAD; BD Biosciences). Viable AML cells (GFP^+7-AAD^−) were sorted on a BD FACSAria II (BD Biosciences) with the sample collector cooled to 4° C. Sorted cells were immediately processed.
FACS-sorted cells or plasma samples were lysed in ice-cold methanol and polar metabolites were extracted using methanol-chloroform phase separation (methanol:water:chloroform in 2:1:2 ratio). Samples were then dried under nitrogen flow, resuspended in 70% acetonitrile in water containing 2.5 μM of an internal standard (^13C-, ^15N-labeled amino acid mix; Cambridge Isotope Laboratories) and run on a ThermoFisher Q-exactive equipped with Zic-pHILIC column (150×2.1 mm, 5 μm; Merck). A volume of 5 μl was injected and the full mass spectrum was obtained in both positive and negative mode (0 to 45 minutes, resolution 70000, AGC target 3e6, mz range 66 to 990). Mobile phase A for chromatography consisted of 20 mM ammonium carbonate, 0.1% ammonium hydroxide, in water and mobile phase B of 97% acetonitrile in water. For untargeted metabolomics, a pooled sample was created from all samples and used for MS/MS runs. For targeted analysis, a standard mix at 1 μM of each compound of interest was prepared and run after the samples to confirm retention times.
For untargeted metabolomics analysis, data were processed with Compound Discoverer 3.0 (ThermoFisher Scientific) using the mzCloud mass spectral library for compound annotation. […] For targeted metabolomics analysis, data were analyzed with Tracefinder4.1 (ThermoFisher Scientific).

[2] = Tolerability of DON in AML-bearing mice; type: in vivo, mouse
Protocol: as §2

[3] = system: solid tumors and leukemia; conditions: Phase I and II clinical trials, cited from earlier work
HoxA9/Meis1 AML = assay: Kaplan-Meier survival of HoxA9/Meis1 AML-bearing mice; type: in vivo, mouse; conditions: two doses of DON 0.3 mg/kg I.P. after completion of iCT
Excerpt: as §1
(§3) Recipient male mice (age 8-10 weeks) were injected intravenously (retro-orbital) with 1 million leukemia cells in a volume of 100 μl of saline. Disease progression was tracked intravitally using bioluminescence imaging. Mice were anaesthetized using isoflurane, injected with luciferin (150 μl of a 15 mg/ml solution in PBS), and imaged on an IVIS 200 Spectrum In Vivo Imaging System (PerkinElmer). […]

MLL-AF9 AML cells [4] = assay: AML burden of MLL-AF9 AML-bearing mice by bioluminescence imaging or flow cytometry; type: in vivo, mouse; conditions: short term DON after iCT
Protocol: as §2, with “To inhibit DHODH, mice were treated with BRQ (50 mg/kg, once daily) or vehicle (70% PBS, 30% poly(ethylene glycol)-400, pH 7.2) delivered via I.P. injection. To inhibit GCL, mice were treated with BSO (twice daily by I.P. injection at 2.23 mg/kg+in the drinking water at 4.45 mg/ml) or vehicle (saline by I.P. injection+untreated drinking water).” left out
(§4) Cells were suspended in flow buffer and stained for 30 minutes at 4° C. in the dark with antibodies against c-Kit, Sca-1, CD34, CD45, Ter-119, CD31, LepR, CD90, CD105, SLC1A3, SLC38A1 or a lineage cocktail (CD3, Gr-1, CD11b, B220, Ter-119). […] Cell viability was analyzed using Annexin V-APC (BioLegend) and propidium iodide (PI; ThermoFisher Scientific) with Annexin V^−PI^− cells considered as viable cells. The number of viable cells was determined by taking into account the total number of cells per well as measured using a Cellometer (Nexcelom). Mitochondrial membrane potential was measured by Tetramethylrhodamine, ethyl ester (TMRE; ThermoFisher) staining and levels of ROS were measured by CellROX Orange staining. Cells were incubated with 200 nM TMRE or 2.5 μM CellROX Orange in RPMI1640 medium supplemented with 10% FBS, 100 I.U./ml penicillin, 100 μg/ml streptomycin and 2 mM L-glutamine at 37° C. for 30 minutes, washed in flow buffer and analyzed. For all flow cytometry experiments, single color controls were used to set compensations and fluorescence minus one controls were used to set gates. […]

HoxA9/Meis1 AML cells = assay: AML cell elimination in HoxA9/Meis1 AML-bearing mice; type: in vivo, mouse; conditions: DON after completion of iCT
Protocol: as §2

MLL-AF9 AML cells [5] = assay: Apoptotic cells in MLL-AF9 AML cells of treated mice, flow cytometry for active Caspase 3; type: in vivo, mouse; conditions: combination of iCT and DON (sequential); one day after the last dose of DON
Protocol: as §2

MLL-AF9 AML cells [6] = assay: Flow cytometric quantification of CD34 and cKit levels in AML cells obtained from treated mice; type: in vivo, mouse
Protocol: as §2
Cells were suspended in flow buffer and stained for 30 minutes at 4° C. in the dark with antibodies against c-Kit, Sca-1, CD34, CD45, Ter-119, CD31, LepR, CD90, CD105, SLC1A3, SLC38A1 or a lineage cocktail (CD3, Gr-1, CD11b, B220, Ter-119). 7-AAD was included as a viability dye to help identify dead cells. When necessary, cells were stained with a secondary antibody (Alexa Fluor 546-conjugated anti-rabbit IgG) or APC-eFluor 780-conjugated streptavidin (eBioscience) for 15 minutes at 4° C. in the dark. […] Cell viability was analyzed using Annexin V-APC (BioLegend) and propidium iodide (PI; ThermoFisher Scientific) with Annexin V^−PI^− cells considered as viable cells. The number of viable cells was determined by taking into account the total number of cells per well as measured using a Cellometer (Nexcelom). Mitochondrial membrane potential was measured by Tetramethylrhodamine, ethyl ester (TMRE; ThermoFisher) staining and levels of ROS were measured by CellROX Orange staining. Cells were incubated with 200 nM TMRE or 2.5 μM CellROX Orange in RPMI1640 medium supplemented with 10% FBS, 100 I.U./ml penicillin, 100 μg/ml streptomycin and 2 mM L-glutamine at 37° C. for 30 minutes, washed in flow buffer and analyzed. For all flow cytometry experiments, single color controls were used to set compensations and fluorescence minus one controls were used to set gates. All flow cytometry data was collected on a BD LSR II flow cytometer and analyzed using FlowJo software.

MLL-AF9 AML cells [7] = assay: Double-stranded DNA breaks in MLL-AF9 AML cells of treated mice, flow cytometry for gamma-H2AX; type: in vivo, mouse; conditions: short term DON after iCT; one day after the last dose of DON
Protocol: as §3, with “(PerkinElmer). When indicated, mice were treated with iCT (cytarabine, 100 mg/kg, once daily for 5 days and doxorubicin, 3 mg/kg, once daily for the first 3 days) or vehicle (saline) delivered via I.P. injection.” for “(PerkinElmer).”
as §4, with “staining.” for “staining. Cells were incubated with 200 nM TMRE or 2.5 μM CellROX Orange in RPMI1640 medium supplemented with 10% FBS, 100 I.U./ml penicillin, 100 μg/ml streptomycin and 2 mM L-glutamine at 37° C. for 30 minutes, washed in flow buffer and analyzed. For all flow cytometry experiments, single color controls were used to set compensations and fluorescence minus one controls were used to set gates.”

MLL-AF9 AML cells [8] = assay: Colony forming unit assay of AML cells obtained from treated mice; type: in vivo, mouse
Protocol: as §2, with “water). […] FACS-sorted viable AML cells (GFP^+7-AAD^−) were resuspended in MethoCult GF M3434 (StemCell Technologies) at 1000 cells/ml and plated in SmartDish 6-well plates (StemCell Technologies) at 1 ml/well in duplicate. Cells were cultured in a humidified incubator at 37° C. in ambient air with 5% CO2. After 5 days colonies were counted.” for “water).”

[9] = agent alone, compared to vehicle-treated mice
[10] = combination with iCT (sequential), four days after the last dose of iCT

CCCCS(=N)(=O)CCC(N)C(=O)O [BSO, L-buthionine-sulfoximine]
survival (MLL-AF9 AML; BSO (2.23 mg/kg B.I.D. I.P. + 4.45 mg/ml in drinking water) for 4 days following iCT, compared to iCT alone): no difference in survival compared to iCT alone

[N-]=[N+]=CC(=O)CC[C@H](N)C(=O)O [DON, 6-diazo-5-oxo-L-norleucine]
UMP levels in chemoresistant AML cells ([1]; DON after iCT): prevented the increase of UMP levels | glutamate level in AML cells ([1]; DON after iCT): normalizing the increase in glutamate; also recorded: partially reducing the increase in glutamate | reduced glutathione (GSH) levels in AML cells ([1]; DON after iCT): effective in suppressing the increase in GSH levels | aspartate level in AML cells ([1]; iCT followed by DON): remained high | glutamine level in AML cells ([1]; mice treated with iCT and/or DON): accumulation of glutamine | tolerability ([2]; DON every other day after iCT): acceptable | tolerability / toxicity ([2]; daily DON injections after iCT): toxicity issues; also recorded: did not tolerate | clinical side effects [3]: dose-dependent side effects including nausea, vomiting and mucositis | clinical efficacy ([3]; single agent): limited efficacy as a single agent | survival (HoxA9/Meis1 AML): improved mouse survival | relapse (MLL-AF9 AML cells [4]; bioluminescence imaging): delayed relapse | elimination of AML cells (AML burden) (MLL-AF9 AML cells [4]; one day after the last dose of DON): improved elimination of AML cells; also recorded: reduced the number of chemoresistant cells | survival (MLL-AF9 AML; DON 0.3 mg/kg I.P. given for 5 days at the same time as iCT (concomitant)): no difference in survival | survival (MLL-AF9 AML; DON 0.3 mg/kg I.P. started after completion of iCT, covering the moment of maximal response, daily for a short time or continuously every other day): clear survival benefit; also recorded: improved survival | survival, DON every other day compared to short term DON treatment (MLL-AF9 AML; DON every other day following iCT): further improved mouse survival | AML cell elimination (HoxA9/Meis1 AML cells): enhanced AML cell elimination | percentage of apoptotic cells (active Caspase 3) (MLL-AF9 AML cells [5]): more apoptotic cells | percentage of CD34+cKit+ cells (MLL-AF9 AML cells [6]; [9]): no effect on marker expression | percentage of CD34+cKit+ cells (MLL-AF9 AML cells [6]; [10]): normalized | double stranded DNA breaks in residual cells (gamma-H2AX) (MLL-AF9 AML cells [7]): increased double stranded DNA breaks | number of colony-forming units (CFUs) (MLL-AF9 AML cells [8]; [9]): moderately increased the number of CFUs | number of colony-forming units (CFUs) (MLL-AF9 AML cells [8]; [10]): normalized

Source: patent US20230136218A1, “METHODS AND COMPOSITIONS FOR TREATING ACUTE MYELOID LEUKEMIA” (President and Fellows of Harvard College, priority 2019, published 2023)
